Assay [1] concerns the target T1, cloned human H3 receptors (Homo sapiens, UniProt Q9Y5N1).
T1 construct: expressed in transfected cells; host or cells: SK-N-MC cells
Put plainly: H3 Receptor Binding (Human). Particulars: cloned human H3 receptors stably expressed in SK-N-MC cells; average of the results obtained. The protocol: Binding of compounds to the cloned human H3 receptors, stably expressed in SK-N-MC cells, was performed as described by Barbier, A. J. et al. (Br. J. Pharmacol. 2004, 143(5), 649-661). Data for compounds tested in this assay are presented in Table 1 as an average of the results obtained.

In assay [2] the target is T2, Rat H3 (Rattus norvegicus, UniProt Q9QYN8). Put plainly: Cyclic AMP Accumulation (rat H3 receptor). Further details: expressed in transfected cells; host or cells: SK-N-MC sublines with reporter construct. Format: cell-based. Particulars: SK-N-MC cells expressing a reporter construct and the rat H3 receptor; average; read-out: Rat pA2 (converted). The text has this: (§1) Sublines of SK-N-MC cells were created that expressed a reporter construct and either the human or rat H3 receptor. The pA2 values were obtained as described by Barbier et al. (2004). Data for compounds tested in these assays are presented in Table 3, as an average of the results obtained (NT=not tested).
T2 sequence (Q9QYN8 whole entry): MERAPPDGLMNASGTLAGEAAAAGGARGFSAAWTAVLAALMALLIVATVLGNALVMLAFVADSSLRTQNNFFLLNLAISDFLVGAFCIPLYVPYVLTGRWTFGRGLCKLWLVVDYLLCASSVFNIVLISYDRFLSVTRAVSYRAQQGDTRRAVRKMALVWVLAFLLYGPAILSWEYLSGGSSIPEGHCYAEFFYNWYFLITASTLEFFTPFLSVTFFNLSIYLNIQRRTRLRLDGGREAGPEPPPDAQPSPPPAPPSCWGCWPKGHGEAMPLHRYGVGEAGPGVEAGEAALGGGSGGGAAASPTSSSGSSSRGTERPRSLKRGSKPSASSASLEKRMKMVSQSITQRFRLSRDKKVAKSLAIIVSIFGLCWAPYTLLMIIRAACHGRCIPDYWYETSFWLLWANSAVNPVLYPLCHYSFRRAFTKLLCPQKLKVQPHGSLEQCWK

In assay [3] the target is T3, human H3 receptor (Homo sapiens, UniProt Q9Y5N1).
T3 construct: expressed in transfected cells; host or cells: SK-N-MC sublines with reporter construct
T3 sequence (Q9Y5N1 whole entry): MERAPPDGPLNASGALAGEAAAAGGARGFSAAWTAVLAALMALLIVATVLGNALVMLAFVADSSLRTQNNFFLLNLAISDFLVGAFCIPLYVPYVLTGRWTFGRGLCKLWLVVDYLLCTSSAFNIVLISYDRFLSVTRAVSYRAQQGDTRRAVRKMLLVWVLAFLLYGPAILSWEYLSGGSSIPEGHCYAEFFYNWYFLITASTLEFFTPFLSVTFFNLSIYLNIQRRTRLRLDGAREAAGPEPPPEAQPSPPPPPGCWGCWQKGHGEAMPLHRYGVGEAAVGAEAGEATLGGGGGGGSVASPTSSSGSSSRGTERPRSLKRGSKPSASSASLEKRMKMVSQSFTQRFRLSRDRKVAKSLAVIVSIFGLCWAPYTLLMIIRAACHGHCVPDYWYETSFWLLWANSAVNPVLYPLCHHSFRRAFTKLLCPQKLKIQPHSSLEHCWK
Put plainly: Cyclic AMP Accumulation (human H3 receptor). Format: cell-based. Particulars: SK-N-MC cells expressing a reporter construct and the human H3 receptor; average; read-out: Human pA2 (converted).
Description: as §1

The target of assay [4] is T2, Rat H3. Briefly: H3 Receptor Binding (Rat). The conditions noted are these: rat brain (without cerebellum) membranes; 0.8 nM N-[3H]-α-methylhistamine, 60 min at 25° C.; IC50 converted to Ki; average. Further details: A rat brain without cerebellum (Zivic Laboratories Inc., Pittsburgh, Pa.) was homogenized; tissue Zivic Laboratories Inc; host or cells: rat brain without cerebellum (membranes). On the procedure: A rat brain without cerebellum (Zivic Laboratories Inc., Pittsburgh, Pa.) was homogenized in 50 mM Tris-HCl/5 mM EDTA and centrifuged at 1,000 rpm for 5 min. The supernatant was removed and recentrifuged at 15,000 rpm for 30 min. Pellets were rehomogenized in 50 mM Tris/5 mM EDTA (pH 7.4). Membranes were incubated with 0.8 nM N-[^3H]-α-methylhistamine plus/minus test compounds for 60 min at 25° C. and harvested by rapid filtration over GF/C glass fiber filters (pretreated with 0.3% polyethylenimine) followed by four washes with buffer. Nonspecific binding was defined in the presence of 100 μM histamine. Inhibitory concentration (responsible for 50% inhibition of maximal effect, IC50) values were determined by a single site curve-fitting program (GraphPad, San Diego, Calif.) and converted to Ki values based on a N-[^3H]-α-methylhistamine dissociation constant (Kd) of 0.8 nM. Data for compounds tested in this assay are presented in Table 2 as an average of the results obtained.

T1 sequence (Q9Y5N1 whole entry): as above

One may read the Ki as the dissociation constant of the complex between target and ligand, obtained from inhibition or displacement. A low value points to a stronger hold on the target. Take `CC(C)N1CCN(C(=O)c2ccc3c(c2)CCN(Cc2ccc(Cl)cc2)C3)CC1` [Example 22, [2-(4-Chloro-benzyl)-1,2,3,4-tetrahydro-isoquinolin-6-yl]-(4-isoproplyl-piperazin-1-yl)-methanone]: in assay [1], the Ki stood at 5 nM. For the same molecule, the Kb is 30.9 nM in assay [2] and 10.5 nM in assay [3].
For the molecule `O=C(c1ccc2c(c1)CCN(C(=O)c1ccccc1)C2)N1CCCN(C2CCC2)CC1` [Example 35, [6-(4-Cyclobutyl-[1,4]diazepane-1-carbonyl)-3,4-dihydro-1H-isoquinolin-2-yl]-phenyl-methanone], in assay [1], the Ki amounted to 1 nM. Besides, the Kb in assay [2] is 2.34 nM; in assay [3] it was 0.513 nM.
For `O=C(c1ccc2c(c1)CCN(C(=O)C1CCCCC1)C2)N1CCCN(C2CCC2)CC1` [Example 40, [6-(4-Cyclobutyl-[1,4]diazepane-1-carbonyl)-3,4-dihydro-1H-isoquinolin-2-yl]-cyclohexyl-methanone] the same measures were 1 nM, 2.88 nM and 0.355 nM.
For `CCC(=O)N1CCc2cc(C(=O)N3CCC[C@H]3CN3CCCC3)ccc2C1` [Example 45, (S)-1-[6-(2-Pyrrolidin-1-ylmethyl-pyrrolidine-1-carbonyl)-3,4-dihydro-1H-isoquinolin-2-yl]-propan-1-one] the same measures were 6 nM, 20.4 nM and 2.82 nM.
For `CC(C)N1CCCN(C(=O)c2ccc3c(c2)CCNC3)CC1` [Example 5, (4-Isopropyl-[1,4]diazepan-1-yl)-(1,2,3,4-tetrahydro-isoquinolin-6-yl)-methanone] the same measures were 3 nM, 15.8 nM and 1.55 nM.
As to `CC(C)N1CCc2cc(C(=O)N3CCCN(C4CCC4)CC3)ccc2C1` [Example 177, (4-Cyclobutyl-[1,4]diazepan-1-yl)-(2-isopropyl-1,2,3,4-tetrahydro-isoquinolin-6-yl)-methanone], the Ki in assay [1] and in assay [4] was 1 nM each time.
For the molecule `O=C(c1ccc2c(c1)CCN(C(=O)c1ccc(Cl)cc1)C2)N1CCCN(C2CCC2)CC1` [Example 133, (4-Chloro-phenyl)-[6-(4-cyclobutyl-[1,4]diazepane-1-carbonyl)-3,4-dihydro-1H-isoquinolin-2-yl]-methanone], the values for the Ki in assay [1] and in assay [4] were 2 nM and 18 nM, respectively.
On the same counts, the results for `O=C(c1ccc2c(c1)CCN(C(=O)c1cccc(Cl)c1)C2)N1CCCN(C2CCC2)CC1` [Example 135, (3-Chloro-phenyl)-[6-(4-cyclobutyl-[1,4]diazepane-1-carbonyl)-3,4-dihydro-1H-isoquinolin-2-yl]-methanone] are 1 nM and 11 nM.
In assay [1], `O=C(c1ccc2c(c1)CCN(Cc1ccsc1)C2)N1CCN(C2CCC2)CC1` [Example 15, (4-Cyclobutyl-piperazin-1-yl)-(2-thiophen-3-ylmethyl-1,2,3,4-tetrahydro-isoquinolin-6-yl)-methanone] returned a Ki of 4 nM. Also, the Kb in assay [3] was 1.05 nM.
With `CCCC(=O)N1CCc2cc(C(=O)N3CCC[C@H]3CN3CCCC3)ccc2C1` [Example 46, (S)-1-[6-(2-Pyrrolidin-1-ylmethyl-pyrrolidine-1-carbonyl)-3,4-dihydro-1H-isoquinolin-2-yl]-butan-1-one], the Ki in assay [1] is 4 nM. In addition, the results for the Kb in assay [2] and in assay [3] were 18.2 nM and 2.82 nM, respectively.
With `O=C(c1ccc2c(c1)CCN(C1CCC1)C2)N1CCN2CCCCC2C1` (centres unmarked) [Example 187, (2-Cyclobutyl-1,2,3,4-tetrahydro-isoquinolin-6-yl)-(octahydro-pyrido[1,2-a]pyrazin-2-yl)-methanone], the values for the Ki in assay [1] and in assay [4] were 3 nM and 30 nM, respectively.
Regarding `Cc1ccc(C(=O)N2CCc3cc(C(=O)N4CCCN(C5CCC5)CC4)ccc3C2)cc1F` [Example 142, [6-(4-Cyclobutyl-[1,4]diazepane-1-carbonyl)-3,4-dihydro-1H-isoquinolin-2-yl]-(3-fluoro-4-methyl-phenyl)-methanone], the Ki in assay [1] came out at 1 nM; in assay [4] it was 28 nM.
As to `O=C(c1ccc2c(c1)CCN(Cc1ccccc1)C2)N1CCN(C2CCC2)CC1` [Example 18, (2-Benzyl-1,2,3,4-tetrahydro-isoquinolin-6-yl)-(4-cyclobutyl-piperazin-1-yl)-methanone], the Ki turned out to be 5 nM in assay [1] and 2 nM in assay [4]. Moreover, the values for the Kb in assay [2] and in assay [3] were 2.4 nM and 1.29 nM, respectively.
`O=C(c1ccc2c(c1)CCN(C(=O)C1CCOC1)C2)N1CCCN(C2CCC2)CC1` (centres unmarked) [Example 137, [6-(4-Cyclobutyl-[1,4]diazepane-1-carbonyl)-3,4-dihydro-1H-isoquinolin-2-yl]-(tetrahydro-furan-3-yl)-methanone]: the results for the inhibitory constant (Ki) in assay [1] and in assay [4] were 1 nM and 8 nM, respectively.
`O=C(c1ccc2c(c1)CN(Cc1ccccc1)CC2)N1CCN(C2CCC2)CC1` [Example 26, (2-Benzyl-1,2,3,4-tetrahydro-isoquinolin-7-yl)-(4-cyclobutyl-piperazin-1-yl)-methanone] showed a Ki in assay [1] of 2 nM. In addition, the Kb in assay [3] was 17.8 nM.
Turning to `O=C(c1ccc2c(c1)CCN(C(=O)c1ccccc1)C2)N1CCN(C2CCC2)CC1` [Example 27, (2-Benzoyl-1,2,3,4-tetrahydro-isoquinolin-6-yl)-(4-cyclobutyl-piperazin-1-yl)-methanone], the results for the Ki in assay [1] and in assay [4] were 9 nM and 84 nM, respectively.
Take `CC(C)N1CCCN(C(=O)c2ccc3c(c2)CCN(Cc2ccccc2)C3)CC1` [Example 11, (2-Benzyl-1,2,3,4-tetrahydro-isoquinolin-6-yl)-(4-isopropyl-[1,4]diazepan-1-yl)-methanone]: the affinity in assay [1], expressed as Ki, was 1 nM. For the same molecule, the Kb in assay [2] was 4.47 nM; in assay [3], 0.661 nM.
In the case of `O=C(c1ccc2c(c1)CCN(C(=O)C1CCCCC1)C2)N1CCN(C2CCC2)CC1` [Example 33, [6-(4-Cyclobutyl-piperazine-1-carbonyl)-3,4-dihydro-1H-isoquinolin-2-yl]-cyclohexyl-methanone], the Ki in assay [1] worked out at 8 nM; in assay [4] it was 123 nM. In addition, the Kb in assay [2] is 13.8 nM.
The molecule `O=C(c1ccc2c(c1)CCN(C(=O)C1CCCC1)C2)N1CCCN(C2CCC2)CC1` [Example 39, [6-(4-Cyclobutyl-[1,4]diazepane-1-carbonyl)-3,4-dihydro-1H-isoquinolin-2-yl]-cyclopentyl-methanone] showed a Ki in assay [1] of 1 nM. The Kb in assay [2] was 3.02 nM; in assay [3] it was 0.38 nM.
In the case of `O=C(c1ccc2c(c1)CCN(C(=O)c1ccc(F)cc1F)C2)N1CCCN(C2CCC2)CC1` [Example 144, [6-(4-Cyclobutyl-[1,4]diazepane-1-carbonyl)-3,4-dihydro-1H-isoquinolin-2-yl]-(2,4-difluoro-phenyl)-methanone], the figures for the Ki in assay [1] and in assay [4] were 1 nM and 32 nM, respectively.
On the same counts, the results for `CCC(=O)N1CCc2cc(C(=O)N3CCCN(C4CCC4)CC3)ccc2C1` [Example 139, 1-[6-(4-Cyclobutyl-[1,4]diazepane-1-carbonyl)-3,4-dihydro-1H-isoquinolin-2-yl]-propan-1-one] are 1 nM and 7 nM.
Take `O=C(c1ccc2c(c1)CN(C(=O)c1ccccc1)CC2)N1CCCN(C2CCC2)CC1` [Example 36, [7-(4-Cyclobutyl-[1,4]diazepane-1-carbonyl)-3,4-dihydro-1H-isoquinolin-2-yl]-phenyl-methanone]: the affinity in assay [1] corresponds to a Ki of 1 nM. Moreover, the Kb in assay [2] was 3.8 nM; in assay [3], 0.49 nM.
`O=C(c1ccc2c(c1)CCN(C(=O)c1ccccc1F)C2)N1CCCN(C2CCC2)CC1` [Example 136, [6-(4-Cyclobutyl-[1,4]diazepane-1-carbonyl)-3,4-dihydro-1H-isoquinolin-2-yl]-(2-fluoro-phenyl)-methanone]: the Ki in assay [1] was 1 nM; in assay [4], 16 nM.
Turning to `O=C(c1ccc2c(c1)CCN(C(=O)C1CCCC1)C2)N1CCN(C2CCC2)CC1` [Example 32, [6-(4-Cyclobutyl-piperazine-1-carbonyl)-3,4-dihydro-1H-isoquinolin-2-yl]-cyclopentyl-methanone], the Ki in assay [1] turned out to be 5 nM; in assay [4], 135 nM. Besides, the Kb in assay [2] is 15.1 nM; in assay [3] it was 8.51 nM.

Source of the values: US20090099158A1, “TETRAHYDROISOQUINOLINE COMPOUNDS AS MODULATORS OF THE HISTAMINE H3 RECEPTOR” (priority 2007, published 2009).
